# Earlier results, collected in PubChem BioAssay AID1259409 (Chemical Carcinogenesis Research Information System (CCRIS), 2018).
# Values joined by “and” are separate entries in the source; they are usually repeats but may differ in a detail not shown here. Equal values may be shown once.
# Tested on: rodent chemically induced tumor inhibition, incidence and multiplicity
# Assay: CCRIS tumor inhibitor studies
smiles,measurement,setting,value
[O]=[V](=[O])[OH],"tumour outcome (control, treated, inhibition, significance)","Carcinogen: 7,12-DIMETHYLBENZ[A]ANTHRACENE (57-97-6), Dose [Inhibitor]: DRINKING WATER, Route [Inhibitor]: 4.27 µM/L DIRECTLY AFTER CARCINOGEN UNTIL 34 WKS, Species: RAT, Strain/Sex: SPRAGUE-DAWLEY/FEMALE, Target Tissue: Type of Lesion: MAMMARY: CARCINOMA, Dose [Carcinogen]: 0.5 MG/100 G BW AT 50 D OF AGE ONCE (STUDY DURATION: 35 WKS)","100%, 60%, 40%, p<0.05"
same,outcome,"Carcinogen: 7,12-Dimethylbenzanthracene, 57-97-6, Dose [Inhibitor]: 0.5 ppm in drinking water beginning immediately after carcinogen up to 35 wks study duration, Route [Inhibitor]: Oral, Species: Rat, Strain/Sex: Sprague-Dawley/Female, Target Tissue: Type of Lesion: Mammary gland: Adenocarcinoma, Dose [Carcinogen]: 0.5 mg/100 g bw iv once, study duration 35 wk, Promoter: None","9/10 (90%), 6/10 (60%), p<0.05"
same,outcome,"Carcinogen: INTRAVENOUS; Dose [Inhibitor]: 7,12-DIMETHYLBENZ[A]ANTHRACENE; 57-97-6; Route [Inhibitor]: 0; 0.5 PPM IN DRINKING WATER FOR 35 WK BEGINNING IMMEDIATELY POST CARCINOGEN TREATMENT, STUDY DURATION: 35 WK), Species: RAT, Strain/Sex: SPRAGUE-DAWLEY/FEMALE, Target Tissue: Type of Lesion: 9/10 (90%), 6/10 (60%), 33%, P<0.05","8.11, 5.33, 34%, p<0.01"
same,"tumour outcome (control, treated, inhibition, significance)","Carcinogen: N,N-Diethylnitrosamine;(55-18-5, Dose [Inhibitor]: 0.5 ppm as vanadium starting 4 wk prior to DEN and stopped at week 4, Route [Inhibitor]: Oral (drinking water), Species: Rats, Strain/Sex: Sprague-Dawley/Male, Target Tissue: Type of Lesion: Liver: Preneoplastic nodules, Dose [Carcinogen]: Single 200 mg/kg dose in 0.9% saline at wk 4 of experiment, Promoter: Phenobarbital","15/15 (100%), 4/12 (33.33%), 66.67%"
CCCCCCCCCCCCCCCCCC(=O)O,"tumour outcome (control, treated, inhibition, significance)","Carcinogen: BENZO[A]PYRENE, 50-32-8, Dose [Inhibitor]: 4 MG IN 0.2 ML ACETONE 3/WK ADMINISTERED SIMULTANEOUSLY WITH CARCINOGEN FOR DURATION OF STUDY (STUDY DURATION: 440 D), Route [Inhibitor]: DERMAL, Species: MOUSE, Strain/Sex: ICR/FEMALE, Target Tissue: Type of Lesion: SKIN: PAPILLOMA, Dose [Carcinogen]: 5 UG IN 0.2 ML ACETONE THAT ALSO CONTAINED AGENT 3/WK, Promoter: NONE USED","16/50 (32%), 25/50 (50%), -56%, not calculated"
same,"tumour outcome (control, treated, inhibition, significance)","Carcinogen: BENZO[A]PYRENE, 50-32-8, Dose [Inhibitor]: 4 MG IN 0.2 ML ACETONE 3/WK ADMINISTERED SIMULTANEOUSLY WITH CARCINOGEN FOR DURATION OF STUDY (STUDY DURATION: 440 D), Route [Inhibitor]: DERMAL, Species: MOUSE, Strain/Sex: ICR/FEMALE, Target Tissue: Type of Lesion: SKIN: SQUAMOUS CARCINOMA, Dose [Carcinogen]: 5 UG IN 0.2 ML ACETONE THAT ALSO CONTAINED AGENT 3/WK, Promoter: NONE USED","12/50 (24%), 7/50 (14%), 42%, not calculated"
Cl,"tumour outcome (control, treated, inhibition, significance)","Carcinogen: 1,2-DIMETHYLHYDRAZINE, 540-73-8, Dose [Inhibitor]: 0, 5 G/L IN DRINKING WATER FOR DURATION OF STUDY BEGINNING 7 D PRIOR TO CARCINOGEN TREATMENT (STUDY DURATION: 8 MO), Route [Inhibitor]: ORAL, Species: RAT, Strain/Sex: BD6/MALE, Target Tissue: Type of Lesion: INTESTINE: TUMOR, Dose [Carcinogen]: 20 MG/KG BW 1/WK FOR 20 WK, Promoter: NONE USED","100%, 100%, 0%, not significant"
same,"tumour outcome (control, treated, inhibition, significance)","Carcinogen: BRACKEN FERN, Dose [Inhibitor]: 20 MG/G DIET/D FOR 12 MO SIMULTANEOUS WITH CARCINOGEN (STUDY DURATION: 12 MO), Route [Inhibitor]: ORAL, Species: RAT, Strain/Sex: ALBINO/?, Target Tissue: Type of Lesion: INTESTINE: TUMOR, Dose [Carcinogen]: 0.33 G IN DIET/D FOR 12 MO, Promoter: NONE USED","30/30 (100%), 16/23 (70%), 30%, p<0.01"
same,"tumour outcome (control, treated, inhibition, significance)","Carcinogen: BRACKEN FERN, Dose [Inhibitor]: 20 MG/G DIET/D FOR 12 MO SIMULTANEOUS WITH CARCINOGEN (STUDY DURATION: 12 MO), Route [Inhibitor]: ORAL, Species: RAT, Strain/Sex: ALBINO, Target Tissue: Type of Lesion: URINARY BLADDER: TUMOR, Dose [Carcinogen]: 0.33 G IN DIET/D FOR 12 MO, Promoter: NONE USED","22/30 (73%), 4/23 (17%), 77%, p<0.001"
same,"tumour outcome (control, treated, inhibition, significance)","Carcinogen: N-METHYL-N'-NITRO-N-NITROSOGUANIDINE, 70-25-7, Dose [Inhibitor]: 0, 1% IN DRINKING WATER BEGINNING 1 WK POST CARCINOGEN TREATMENT AND CONTINUING FOR STUDY DURATION (STUDY DURATION: 52 W, Route [Inhibitor]: ORAL, Species: RAT, Strain/Sex: SHR/MALE, Target Tissue: Type of Lesion: STOMACH: ADENOCARCINOMA, Dose [Carcinogen]: 40 ML OF A 25 MG/ML SOLUTION 1/2 D IN DRINKING WATER FOR 25 WK","65%, 20%, 69%, p<0.02"
same,"tumour outcome (control, treated, inhibition, significance)","Carcinogen: N-METHYL-N'-NITRO-N-NITROSOGUANIDINE, 70-25-7, Dose [Inhibitor]: 0, 1% IN DRINKING WATER BEGINNING 1 WK POST CARCINOGEN TREATMENT AND CONTINUING FOR STUDY DURATION (STUDY DURATION: 52 W, Route [Inhibitor]: ORAL, Species: RAT, Strain/Sex: WKR/MALE, Target Tissue: Type of Lesion: STOMACH: ADENOCARCINOMA, Dose [Carcinogen]: 40 ML OF A 25 MG/ML SOLUTION 1/2 D IN DRINKING WATER FOR 25 WK","25%, 20%, 20%, not calculated"
same,"tumour outcome (control, treated, inhibition, significance)","Carcinogen: N-METHYL-N'-NITRO-N-NITROSOGUANIDINE, 70-25-7, Dose [Inhibitor]: 0, 1% IN DRINKING WATER FOR 27 WK BEGINNING POST CARCINOGEN DOSE (STUDY DURATION: 52 WK), Route [Inhibitor]: ORAL, Species: RAT, Strain/Sex: WISTAR/MALE, Target Tissue: Type of Lesion: STOMACH: TUMOR, Dose [Carcinogen]: 25 UG/ML IN DRINKING WATER FOR 25 WK, Promoter: DEOXYCORTICOSTERONE ACETATE, 56-47-3","11/20 (55%), 3/18 (17%), 69%, p<0.05"
same,"tumour outcome (control, treated, inhibition, significance)","Carcinogen: N-METHYL-N'-NITRO-N-NITROSOGUANIDINE, 70-25-7, Dose [Inhibitor]: 0, 4% IN DIET FOR 25 WK BEGINNING 1 WK POST CARCINOGEN TREATMENT (STUDY DURATION: 52 WK), Route [Inhibitor]: ORAL, Species: RAT, Strain/Sex: WISTAR/MALE, Target Tissue: Type of Lesion: STOMACH: ADENOCARCINOMA, Dose [Carcinogen]: 25 UG/ML IN DRINKING WATER FOR 25 WK, Promoter: SODIUM CHLORIDE, 7647-14-5","17/19 (89%), 10/18 (56%), 37%, not significant"
same,"tumour outcome (control, treated, inhibition, significance)","Carcinogen: N-METHYL-N'-NITRO-N-NITROSOGUANIDINE, 70-25-7, Dose [Inhibitor]: 0, 8% IN DIET FOR 25 WK BEGINNING 1 WK POST CARCINOGEN TREATMENT (STUDY DURATION: 52 WK), Route [Inhibitor]: ORAL, Species: RAT, Strain/Sex: WISTAR/MALE, Target Tissue: Type of Lesion: STOMACH: ADENOCARCINOMA, Dose [Carcinogen]: 25 UG/ML IN DRINKING WATER FOR 25 WK, Promoter: SODIUM CHLORIDE, 7647-14-5","17/19 (89%), 5/19 (26%), 71%, p<0.01"
CC(C)=CCC/C(C)=C/COc1c2ccoc2cc2oc(=O)ccc12,"tumour outcome (control, treated, inhibition, significance)","Carcinogen: 7,12-DIMETHYLBENZ[A]ANTHRACENE, 57-97-6, Dose [Inhibitor]: 0, 400 NMOL ONCE APPLIED 5 MIN PRIOR TO CARCINOGEN DOSE (STUDY DURATION: 25 WK), Route [Inhibitor]: DERMAL, Species: MOUSE, Strain/Sex: SENCAR, Target Tissue: Type of Lesion: SKIN: PAPILLOMA, Dose [Carcinogen]: 10 NMOL ONCE, Promoter: 12-O-TETRADECANOYLPHORBOL-13-ACETATE, 16561-29-8","96%, 100%, -4%, not significant"
same,"tumour outcome (control, treated, inhibition, significance)","Carcinogen: 7-12-DIMETHYLBENZ[A]ANTHRACENE, 57-97-6, Dose [Inhibitor]: 0, 800 NMOL ONCE APPLIED 5 MIN PRIOR TO CARCINOGEN DOSE (STUDY DURATION: 25 WK), Route [Inhibitor]: DERMAL, Species: MOUSE, Strain/Sex: SENCAR, Target Tissue: Type of Lesion: SKIN: PAPILLOMA, Dose [Carcinogen]: 10 NMOL ONCE, Promoter: 12-O-TETRADECANOYLPHORBOL-13-ACETATE, 16561-29-8","96%, 100%, -4%, not significant and 93%, 96%, -3%, not significant"
same,"tumour outcome (control, treated, inhibition, significance)","Carcinogen: BENZO[A]PYRENE, 50-32-8, Dose [Inhibitor]: 0, 20 NMOL ONCE APPLIED 5 MIN PRIOR TO CARCINOGEN DOSE (STUDY DURATION: 25 WK), Route [Inhibitor]: DERMAL, Species: MOUSE, Strain/Sex: SENCAR, Target Tissue: Type of Lesion: SKIN: PAPILLOMA, Dose [Carcinogen]: 200 NMOL ONCE, Promoter: 12-O-TETRADECANOYLPHORBOL-13-ACETATE, 16561-29-8","91%, 100%, -10%, not significant"
same,"tumour outcome (control, treated, inhibition, significance)","Carcinogen: BENZO[A]PYRENE, 50-32-8, Dose [Inhibitor]: 0, 100 NMOL ONCE APPLIED 5 MIN PRIOR TO CARCINOGEN DOSE (STUDY DURATION: 25 WK), Route [Inhibitor]: DERMAL, Species: MOUSE, Strain/Sex: SENCAR, Target Tissue: Type of Lesion: SKIN: PAPILLOMA, Dose [Carcinogen]: 200 NMOL ONCE, Promoter: 12-O-TETRADECANOYLPHORBOL-13-ACETATE, 16561-29-8","91%, 87%, 4%, not significant"
same,"tumour outcome (control, treated, inhibition, significance)","Carcinogen: BENZO[A]PYRENE, 50-32-8, Dose [Inhibitor]: 0, 400 NMOL ONCE APPLIED 5 MIN PRIOR TO CARCINOGEN DOSE (STUDY DURATION: 25 WK), Route [Inhibitor]: DERMAL, Species: MOUSE, Strain/Sex: SENCAR, Target Tissue: Type of Lesion: SKIN: PAPILLOMA, Dose [Carcinogen]: 200 NMOL ONCE, Promoter: 12-O-TETRADECANOYLPHORBOL-13-ACETATE, 16561-29-8","91%, 92%, -1%, not significant"
same,"tumour outcome (control, treated, inhibition, significance)","Carcinogen: BENZO[A]PYRENE, 50-32-8, Dose [Inhibitor]: 0, 800 NMOL ONCE APPLIED 5 MIN PRIOR TO CARCINOGEN DOSE (STUDY DURATION: 25 WK), Route [Inhibitor]: DERMAL, Species: MOUSE, Strain/Sex: SENCAR, Target Tissue: Type of Lesion: SKIN: PAPILLOMA, Dose [Carcinogen]: 200 NMOL ONCE, Promoter: 12-O-TETRADECANOYLPHORBOL-13-ACETATE, 16561-29-8","91%, 82%, 10%, not significant"
